Measured values reported in patent US12226386B2, “Compositions and methods for treating biofilms” (The Regents of the University of California, priority 2018, dated 2025).
Like-named read-outs stand apart in the source and are kept apart here.

Key:
[1] = system: bacterial biofilms (MRSA); assay: biofilm assays (sustained inhibition and/or disruption), bacterial; format: cell-based, Staphylococcus aureus; conditions: for effect on bacterial biofilm growth / anti-biofilm properties against bacterial biofilms: in at least one of the two biofilm assays; for effect on MRSA biofilms in inhibition and disruption assays: Tables 4 and 5; for anti-biofilm properties against bacterial biofilms: administered individually at about 0.1 to about 5.0% weight to volume
Protocol: (§1) Other amino acids in the blood of animals could combat bacterial and fungal biofilm and therefore may be useful in treating these bacterial and fungal infections that would lie on the external surfaces of infected animals such as humans and could also be used to combat these pathogens on instruments and surfaces that need to be treated. Two types of biofilm assays were performed: a sustained inhibition assay and a disruption assay. The sustained inhibition assay assessed the compound's ability to prevent biofilm development throughout all stages of biofilm formation, while the disruption assay assessed the compound's ability to break up an existing mature biofilm.
(§2) For fungal biofilm assays, all solutions were prepared in RPMI 1640 medium. All bacterial biofilm solutions were prepared in Tryptic Soy Broth (TSB), supplemented with 1% glucose (henceforth referred to as TSB-G). All subsequent procedures were performed in a manner that maintained sterility. A solution of each amino acid to be tested was prepared in weight to volume concentrations ranging from 0.1-5.0%. Amino acids were also tested in combinations. Compound solutions were homogenized with gentle agitation in the dark (4° C., 24 hours) before use.
(§3) Bacterial strains were streaked on Blood Agar plates (5% sheep blood in Tryptic Soy Agar) and incubated at 37° C. for 24 hours. A single colony from each strain to be tested was inoculated in a TSB broth and grown for 12 hours, at 37° C. shaking at 225 rpm. For the bacterial biofilm inhibition assays, 1 μL of saturated overnight cell culture was added to either 80 μL of TSB-G, or TSB-G supplemented with the amino acid compound solution to be tested, in a 384-well plate. The cells were allowed to adhere to the plate for 60 minutes at 37° C. without shaking. The media was carefully aspirated and 80 μL of TSB-G, or TSB-G supplemented with the amino acid compound solution was added to the plate. The plate was further incubated for 24 hours at 37° C. without shaking. Media was carefully aspirated and the biofilm was measured by optical density at 600 nm. Eight or twelve replicates were performed for each tested condition and the reported values are normalized to the control (TSB-G media only). For the bacterial biofilm disruption assays, 80 μL of TSB-G was added to the plate, along with 1 μL of overnight cell culture. The cells were allowed to adhere to the plate for 60 minutes at 37° C. with no shaking. The media was carefully aspirated and 80 μL of TSB-G was added to the plate. The plate was further incubated for 24 hours at 37° C. with no shaking. Media was carefully aspirated from the mature biofilm and 80 μL of TSB-G, or TSB-G supplemented with the amino acid to be tested, was gently added to the plate. The plate was further incubated for 24 hours at 37° C. without shaking. Media was aspirated and the biofilm was measured by optical density at 600 nm. Twelve replicates were performed for each tested condition and the reported values are normalized to the control (TSB-G media only).

[2] = system: S. aureus (MRSA) biofilms; assay: in vitro sustained inhibition biofilm assay, bacterial; format: cell-based, Staphylococcus aureus; conditions: for activation at 1 %: Staphylococcus aureus, MRSA, 24 h, read-out: Promote B Biofilm
Protocol: (§4) In vitro biofilm formation was tested using two assays, sustained inhibition and disruption. Both assays assess biofilm formed on polystyrene plates. The first, tests the effects of amino acid solution on a developing biofilm, while the latter tests the effects of the solution on a pre-formed mature biofilm, both compared to media without supplemented amino acids.
as §1, §2, §3
For inhibition assay, 1 μl of overnight cell culture was added to either 80 μl of TSB-G, or TSB-G supplemented with the amino acid to be tested, in a 384-well plate. The cells were allowed to adhere to the plate for 60 minutes at 37° C. with no shaking. The media was carefully aspirated and 80 μl of TSB-G, or TSB-G supplemented with amino acid was added to the plate. The plate was further incubated for 24 hours at 37° C. with no shaking. Media was carefully aspirated and the biofilm was measured by optical density at 600 nm. […]

[3] = system: S. aureus (MRSA) biofilms; assay: in vitro biofilm disruption assay, bacterial; format: cell-based; conditions: Staphylococcus aureus, 24 h
Protocol: as §4, §1, §2, §3
For disruption assay, 80 μl of TSB-G was added to the plate, along with 1 μl of overnight cell culture. The cells were allowed to adhere to the plate for 60 minutes at 37° C. with no shaking. The media was carefully aspirated and 80 μl of TSB-G was added to the plate. The plate was further incubated for 24 hours at 37° C. with no shaking. Media was carefully aspirated from the mature biofilm and 80 μl of TSB-G, or TSB-G supplemented with the amino acid to be tested, was added drop wise to the plate. The plate was further incubated for 24 hours at 37° C. with no shaking. […]

[4] = system: fungal biofilms (C. albicans); assay: biofilm assays (sustained inhibition and/or disruption), fungal; format: cell-based, Candida albicans
Protocol: Other amino acids in the blood of animals could combat bacterial and fungal biofilm and therefore may be useful in treating these bacterial and fungal infections that would lie on the external surfaces of infected animals such as humans and could also be used to combat these pathogens on instruments and surfaces that need to be treated. Two types of biofilm assays were performed: a sustained inhibition assay and a disruption assay. The sustained inhibition assay assessed the compound's ability to prevent biofilm development throughout all stages of biofilm formation, while the disruption assay assessed the compound's ability to break up an existing mature biofilm. For fungal biofilm assays, all solutions were prepared in RPMI 1640 medium. All bacterial biofilm solutions were prepared in Tryptic Soy Broth (TSB), supplemented with 1% glucose (henceforth referred to as TSB-G). All subsequent procedures were performed in a manner that maintained sterility. […] Amino acids were also tested in combinations. Compound solutions were homogenized with gentle agitation in the dark (4° C., 24 hours) before use. Fungal strains were streaked on Yeast Peptone Dextrose (YPD) agar plates and incubated at 30° C. for 48 hours. A single colony from each strain to be tested was inoculated into YPD broth and grown for 12 hours, at 30° C., shaking at 225 rpm. For the fungal biofilm inhibition assay, 1 μl of saturated overnight cell culture was added to either 80 μL of RPMI-1640 or RPMI-1640 supplemented with the amino acid compound solution to be tested, in a 384-well plate. The cells were allowed to adhere to the plate for 90 minutes at 37° C. shaking at 350 rpm. Loosely bound cells were washed once with phosphate buffered saline (PBS) and 80 μl of RPMI-1640, or RPMI-1640 supplemented with the amino acid compound solution was added to the plate. The plate was further incubated for 24 hours at 37° C. shaking at 350 rpm. Media was carefully aspirated and the biofilm was measured by optical density at 600 nm. Twelve replicates were performed for each tested condition and the reported values are normalized to the control (RPMI-1640 media only). For the fungal biofilm disruption assays, 80 μL of RPMI-1640 was added to the plate, along with 1 μL of overnight cell culture. The cells were allowed to adhere to the plate for 90 minutes at 37° C. shaking at 350 rpm. Loosely bound cells were washed once with PBS and 80 μL of RPMI-1640 was added to the plate. The plate was further incubated for 24 hours at 37° C. shaking at 350 rpm. Media was carefully aspirated from the mature biofilm and 80 μL of RPMI-1640, or RPMI-1640 supplemented with the amino acid compound solution to be tested, was gently added to the plate. The plate was further incubated for 24 hours at 37° C. shaking at 350 rpm. Media was carefully aspirated and the biofilm was measured by optical density at 600 nm. Twelve replicates were performed for each tested condition and the reported values are normalized to the control (RPMI-1640 media only).

[5] = sustained inhibition, S. aureus, 1% amino acid, p<0.001
[6] = disruption, S. aureus, 1% amino acid, p<0.001, read-out: Promote B Biofilm
[7] = disruption, S. aureus, 1% amino acid, p<0.001, read-out: Reduce B Biofilm

Compound	effect on bacterial biofilm growth [1]	activation at 1 % [2, 5] [%]	activation at 1 % [3, 6] [%]	also measured
C[C@@H](O)[C@H](N)C(=O)O [Threonine, L-threonine]	support (improve) bacterial biofilm growth	10 to 30	–	–
N[C@@H](Cc1ccccc1)C(=O)O [Phenylalanine, L-phenylalanine]	support (improve) bacterial biofilm growth	10 to 30	10 to 30	–
N[C@@H](CCSC[C@H](N)C(=O)O)C(=O)O [Cystathionine, L-cystathionine]	–	–	–	inhibition at 0.2 % ([3]; disruption, S. aureus, 0.2% amino acid, p<0.001, read-out: Reduce B Biofilm): 10 to 30%
NCCC[C@H](N)C(=O)O [Ornithine, L-omithine]	support (improve) bacterial biofilm growth	10 to 30	10 to 30	–
N[C@@H](CO)C(=O)O [Serine, L-serine]	support (improve) bacterial biofilm growth	10 to 30	10 to 30	–
NC(CCCC(=O)O)C(=O)O (stereo not drawn) [2 Aminoadipic Acid, 2-aminoadipic acid]	–	–	–	inhibition at 1 % [3, 7]: 10 to 30%; effect on MRSA biofilms in inhibition and disruption assays [1]: both inhibited and disrupted; anti-biofilm properties against bacterial biofilms [1]: reduction by less than twofold; Reduce B Biofilm [2, 5]: ● (a single dot [i.e. ●] signifies minor effect (from about 10 to about 30% change))
O=C(O)[C@@H]1C[C@@H](O)CN1 [Hydroxyproline, Trans-4-hydroxy-L-proline]	–	–	–	inhibition at 1 % ([3]; read-out: Reduce B Biofilm): 10 to 30%; effect on MRSA biofilms in inhibition and disruption assays [1]: both inhibited and disrupted; anti-biofilm properties against bacterial biofilms [1]: reduction by less than twofold; Reduce B Biofilm [2, 5]: ● (a single dot [i.e. ●] signifies minor effect (from about 10 to about 30% change))
N[C@@H](CCS)C(=O)O [Homocysteine, L-homocysteine]	–	–	–	effect on C. albicans biofilms in inhibition and disruption assays ([4]; Tables 4 and 5): both inhibited and disrupted; anti-biofilm properties against fungal biofilms ([4]; administered individually, in at least one of the two biofilm assays): reduction by less than two-fold
NC(=O)NCCC[C@H](N)C(=O)O [Citrulline, L-citrulline]	support (improve) bacterial biofilm growth	–	–	activation at 1 % ([3]; read-out: Promote B Biofilm): 10 to 30%; activation at 1 % [2]: 10 to 30%
NC(=O)C[C@H](N)C(=O)O [Asparagine, L-asparagine]	support (improve) bacterial biofilm growth	10 to 30	–	–
NCC(=O)O [Glycine, L-glycine]	support (improve) bacterial biofilm growth	10 to 30	10 to 30	–
NCCS(=O)(=O)O [Taurine, L-taurine]	support (improve) bacterial biofilm growth	10 to 30	10 to 30	–
NCCOP(=O)(O)O [Phosphoethanolamine, O-phosphoethanolamine]	–	–	–	inhibition at 1 % [3, 7]: 10 to 30%; effect on MRSA biofilms in inhibition and disruption assays [1]: both inhibited and disrupted; anti-biofilm properties against bacterial biofilms [1]: reduction by less than twofold; Reduce B Biofilm [2, 5]: ● (a single dot [i.e. ●] signifies minor effect (from about 10 to about 30% change))
N=C(N)NCCC[C@H](N)C(=O)O [Arginine, L-arginine]	support (improve) bacterial biofilm growth	–	–	activation at 1 % ([3]; read-out: Promote B Biofilm): 10 to 30%; activation at 1 % [2]: 10 to 30%
C[C@H](N)C(=O)O [Alanine, L-alanine]	support (improve) bacterial biofilm growth	–	10 to 30	–
CC[C@H](C)[C@H](N)C(=O)O [Isoleucine, L-isoleucine]	support (improve) bacterial biofilm growth	–	10 to 30	–
NCCCC[C@H](N)C(=O)O [Lysine, L-lysine]	support (improve) bacterial biofilm growth	–	–	activation at 1 % ([3]; read-out: Promote B Biofilm): 10 to 30%; activation at 1 % [2]: 10 to 30%
CC(C)C[C@H](N)C(=O)O [Leucine, L-leucine]	support (improve) bacterial biofilm growth	10 to 30	10 to 30	–
CSCC[C@H](N)C(=O)O [Methionine, L-methionine]	support (improve) bacterial biofilm growth	10 to 30	–	–
NCCC(=O)O [Beta-Alanine, Beta-alanine]	–	–	–	anti-biofilm properties against bacterial biofilms [1]: reduction by less than twofold; Reduce B Biofilm [2, 5]: ● (a single dot [i.e. ●] signifies minor effect (from about 10 to about 30% change))
